Measured values from patent US9777002B2, “Inhibitors of the renal outer medullary potassium channel” (Merck Sharp & Dohme Corp., priority 2012, dated 2017).

The molecules below were run against T1, hROMK (hKir1.1) (Homo sapiens, UniProt P48048) (assay: Thallium Flux Assay). Details: HEK293 cells stably expressing hROMK (hKir1.1).
T1 construct: expressed in transfected cells
T1 sequence (P48048 1-391): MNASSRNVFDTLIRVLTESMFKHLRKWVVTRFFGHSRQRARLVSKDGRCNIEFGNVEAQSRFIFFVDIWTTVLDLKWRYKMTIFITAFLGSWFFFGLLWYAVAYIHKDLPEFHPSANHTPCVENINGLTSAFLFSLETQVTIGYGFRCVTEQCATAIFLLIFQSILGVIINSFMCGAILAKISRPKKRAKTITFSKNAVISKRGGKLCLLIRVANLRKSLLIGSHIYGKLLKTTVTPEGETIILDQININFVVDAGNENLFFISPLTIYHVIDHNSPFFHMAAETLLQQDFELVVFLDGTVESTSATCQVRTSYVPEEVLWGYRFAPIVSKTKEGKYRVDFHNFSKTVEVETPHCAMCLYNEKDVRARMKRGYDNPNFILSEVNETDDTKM
Type: cell-based
Outline: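 HEK293 cells stably expressing hROMK were loaded with FluxOR dye for 90 min, then incubated with compound in probenecid assay buffer plus 0.3 mM ouabain, pH 7.4, for 30 min at 23-25 °C. Flux was triggered with 3 mM thallium/0.3 mM potassium (final) and read on FLIPR-Tetra for ~10 min. IC50 was calculated against the signal blocked by 3 μM control inhibitor.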

Going from `Cc1c(CCN2CCC(NC(=O)c3ccc(-n4cccn4)cc3)CC2)ccc2c1COC2=O` [Example 31, N-(1-(2-(4-Methyl-1-oxo-1,3-dihydroisobenzofuran-5-yl)ethyl)piperidin-4-yl)-4-(1H-pyrazol-1-yl)benzamide] to `COc1ccc(C(=O)NC2CCN(CCc3ccc4c(c3C)COC4=O)CC2)cc1C#N` [Example 9, 3-Cyano-4-methoxy-N-(1-(2-(4-methyl-1-oxo-1,3-dihydroisobenzofuran-5-yl)ethyl)piperidin-4-yl)benzamide], the IC50 falls from 100 nM to 30 nM (3.3-fold). The second is the more potent here.

Compared with `COc1ccc(C(=O)NC2CCN(CC(O)c3ccc4c(c3C)COC4=O)CC2)cc1C#N` (centres unmarked) [Example 10, 3-Cyano-N-(1-(2-hydroxy-2-(4-methyl-1-oxo-1,3-dihydroisobenzofuran-5-yl)ethyl)piperidin-4-yl)-4-methoxybenzamide], `Cc1cc(C(=O)NC2CCN(C[C@H](O)c3ccc4c(c3C)COC4=O)CC2)ccc1C#N` [Example 25, (R)-4-Cyano-N-(1-(2-hydroxy-2-(4-methyl-1-oxo-1,3-dihydroisobenzofuran-5-yl)ethyl)piperidin-4-yl)-3-methylbenzamide] is 2-fold lower in IC50: 60 nM for the first, 30 nM for the second. The second is the more potent here.

First: Cc1c([C@@H](O)CN2CCCC(C(C)(C)NC(=O)c3ccc(-n4cnnn4)nc3)C2)ccc2c1COC2=O (stereo partly drawn) [Example 80, N-(2-(1-((R)-2-Hydroxy-2-(4-methyl-1-oxo-1,3-dihydroisobenzofuran-5-yl)ethyl)piperidin-3-yl)propan-2-yl)-6-(1H-tetrazol-1-yl)nicotinamide]
Second: CO[C@@H]1CN(C[C@H](O)c2ccc3c(c2C)COC3=O)CC[C@@H]1NC(=O)c1ccc(-n2cnnn2)nc1 (single isomer, unassigned) [54 B]
The IC50 of the first is 2.9-fold higher: 970 nM for the first, 340 nM for the second.

Compared with `Cc1cc(F)c(C(=O)NC2CCN(CCc3ccc4c(c3C)COC4=O)CC2)cc1C#N` [Example 18, 5-Cyano-2-fluoro-4-methyl-N-(1-(2-(4-methyl-1-oxo-1,3-dihydroisobenzofuran-5-yl)ethyl)piperidin-4-yl)benzamide], `COc1cc(F)c(C#N)cc1C(=O)NC1CCN(CCc2ccc3c(c2C)COC3=O)CC1` [Example 17, 5-Cyano-4-fluoro-2-methoxy-N-(1-(2-(4-methyl-1-oxo-1,3-dihydroisobenzofuran-5-yl)ethyl)piperidin-4-yl)benzamide] is 32-fold lower in IC50: 950 nM for the first, 30 nM for the second. The second is the more potent here.

First: Cc1c([C@@H](O)CN2CC[C@H](NC(=O)c3ccc(C#N)cn3)[C@H](F)C2)ccc2c1COC2=O (single isomer, unassigned) [43 B]
Second: Cc1c([C@@H](O)CN2CC[C@@H](NC(=O)c3ccc(C#N)cn3)[C@H](F)C2)ccc2c1COC2=O [Example 38, 5-Cyano-N-((trans)-3-fluoro-1-((R)-2-hydroxy-2-(4-methyl-1-oxo-1,3-dihydroisobenzofuran-5-yl)ethyl)piperidin-4-yl)picolinamide]
The IC50 of the first is 5.6-fold lower: 180 nM for the first, 1000 nM for the second.

First: Cc1c([C@@H](O)CN2CC[C@H](NC(=O)c3ccc(-n4cnnn4)nc3)[C@H](F)C2)ccc2c1COC2=O (single isomer, unassigned) [50 B]
Second: Cc1c([C@@H](O)CN2CCC(C3(NC(=O)c4ccc(-n5cnnn5)nc4)CCC3)C2)ccc2c1COC2=O (single isomer, unassigned) [90 B]
The IC50 of the first is 3.3-fold higher: 930 nM for the first, 280 nM for the second. The second is the more potent here.

Compared with `Cc1c([C@@H](O)CN2CCC(NC(=O)c3ncc(C#N)c4ccccc34)CC2)ccc2c1COC2=O` [Example 42, (R)-4-Cyano-N-(1-(2-hydroxy-2-(4-methyl-1-oxo-1,3-dihydroisobenzofuran-5-yl)ethyl)piperidin-4-yl)isoquinoline-1-carboxamide], `Cc1cc(C(=O)NC2CCN(C[C@@H](O)c3ccc4c(c3C)COC4=O)CC2)ncc1C#N` [Example 23, (S)-5-cyano-N-(1-(2-hydroxy-2-(4-methyl-1-oxo-1,3-dihydroisobenzofuran-5-yl)ethyl)piperidin-4-yl)-4-methylpicolinamide] is 7.2-fold higher in IC50: 100 nM for the first, 720 nM for the second.

`Cc1c([C@@H](O)CN2CCC3(CC2)CCN3C(=O)c2ccc(-n3cnnn3)cn2)ccc2c1COC2=O` [Example 55, (R)-5-(2-(1-(5-(1H-Tetrazol-1-yl)picolinoyl)-1,7-diazaspiro[3.5]nonan-7-yl)-1-hydroxyethyl)-4-methylisobenzofuran-1(3H)-one] and `Cc1c([C@@H](O)CN2CCC(C)(CNC(=O)c3ccc(-n4cnnn4)cn3)C2)ccc2c1COC2=O` (single isomer, unassigned) [69 B] are within 1.5-fold of each other in IC50: 530 nM for the first, 490 nM for the second.

Going from `Cc1cc(C(=O)NC2CCN(CCc3ccc4c(c3C)COC4=O)CC2)ncc1C#N` [Example 19, 5-Cyano-4-methyl-N-(1-(2-(4-methyl-1-oxo-1,3-dihydroisobenzofuran-5-yl)ethyl)piperidin-4-yl)picolinamide] to `Cc1cc(C(=O)NC2CCN(C[C@H](O)c3ccc4c(c3C)COC4=O)CC2F)ncc1C#N` (single isomer, unassigned) [48 B], the IC50 rises from 50 nM to 100 nM (2-fold). The first is the more potent here.

Going from `Cc1c([C@@H](O)CN2CCC(CNC(=O)c3ccc(-n4cnnn4)nc3)(c3ccccc3)C2)ccc2c1COC2=O` (single isomer, unassigned) [81 B] to `Cc1c([C@@H](O)CN2CCC(C3(NC(=O)c4ccc(-n5cnnn5)nc4)CCC3)C2)ccc2c1COC2=O` (single isomer, unassigned) [90 A], the IC50 rises from 160 nM to 740 nM (4.6-fold). The first is the more potent here.

`Cc1c([C@@H](O)CN2CCC(N3Cc4cc([N+](=O)[O-])ccc4C3=O)CC2)ccc2c1COC2=O` [Example 88, (R)-2-(1-(2-Hydroxy-2-(4-methyl-1-oxo-1,3-dihydroisobenzofuran-5-yl)ethyl)piperidin-4-yl)-5-nitroisoindolin-1-one] and `Cc1c(C(O)CN2CCC(NC(=O)c3ccc4c(c3)COC4=O)CC2)ccc2c1COC2=O` (centres unmarked) [Example 6, N-(1-(2-Hydroxy-2-(4-methyl-1-oxo-1,3-dihydroisobenzofuran-5-yl)ethyl)piperidin-4-yl)-1-oxo-1,3-dihydroisobenzofuran-5-carboxamide] are within 1.5-fold of each other in IC50: 30 nM for the first, 40 nM for the second.

`Cc1c([C@@H](O)CN2CC[C@H](NC(=O)c3ccc(-n4cnnn4)cn3)C2)ccc2c1COC2=O` [Example 61, N-((S)-1-((R)-2-Hydroxy-2-(4-methyl-1-oxo-1,3-dihydroisobenzofuran-5-yl)ethyl)pyrrolidin-3-yl)-5-(1H-tetrazol-1-yl)picolinamide] and `Cc1c([C@@H](O)CN2CCC(NC(=O)c3ccc(-n4cnnn4)cn3)CC2)ccc2c1COC2=O` [Example 53, (R)-N-(1-(2-Hydroxy-2-(4-methyl-1-oxo-1,3-dihydroisobenzofuran-5-yl)ethyl)piperidin-4-yl)-5-(1H-tetrazol-1-yl)picolinamide] are within 1.5-fold of each other in IC50: 230 nM for the first, 190 nM for the second.

`COc1cc(F)c(C#N)cc1C(=O)NC1CCN(C[C@H](O)c2ccc3c(c2C)COC3=O)CC1` [Example 20, (R)-5-Cyano-4-fluoro-N-(1-(2-hydroxy-2-(4-methyl-1-oxo-1,3-dihydroisobenzofuran-5-yl)ethyl)piperidin-4-yl)-2-methoxybenzamide] and `Cc1cc(C(=O)NC2CCN(C[C@H](O)c3ccc4c(c3C)COC4=O)CC2F)ncc1C#N` (single isomer, unassigned) [48 A] are within 1.5-fold of each other in IC50: 70 nM for the first, 80 nM for the second.

Going from `Cc1c([C@@H](O)CN2C3CCC2CC(NC(=O)c2ccc(-n4cnnn4)nc2)C3)ccc2c1COC2=O` (stereo partly drawn) [Example 82, N-(8-((R)-2-Hydroxy-2-(4-methyl-1-oxo-1,3-dihydroisobenzofuran-5-yl)ethyl)-8-azabicyclo[3.2.1]octan-3-yl)-6-(1H-tetrazol-1-yl)nicotinamide] to `Cc1c([C@@H](O)CN2CCC(CNC(=O)c3ccc(-n4cnnn4)nc3)(c3ccccc3)C2)ccc2c1COC2=O` (single isomer, unassigned) [81 A], the IC50 rises from 250 nM to 620 nM (2.5-fold). The first is the more potent here.

`Cc1c([C@@H](O)CN2CCC(NC(=O)c3ccc(C#N)nc3)C(F)C2)ccc2c1COC2=O` (single isomer, unassigned) [46 B] gave an IC50 of 650 nM.
